Laboratory results as given in patent US20130102662A1, “USE OF INDUCIBLE NITRIC OXIDE SYNTHASE INHIBITORS AND NITRIC OXIDE […] INHIBIT POST-[…] IMMUNODEPRESSION” (University of Pittsburgh - of the Commonwealth System of …, priority 2011, published 2013).

Legend:
[1] = test system: splenocytes; assay: Splenocyte IFNγ release 48 hours after pseudofracture trauma, mice given 1400 W; assay type: in vivo; settings: C57BL/6 mice, 1400 W 5 mg/kg intraperitoneally
Protocol: Control mice received no experimental manipulation.
Mice were euthanized at 6 and 48 hours.

[2] = test system: splenocytes; assay: Splenocyte proliferation (3H-dT uptake) 48 hours after pseudofracture + laparotomy, NOX-100 by osmotic pump; assay type: in vivo, C57BL/6 mice; settings: PF+laparotomy, NOX-100 30 mg/kg/hr over 48 hours by intraperitoneal osmotic pump, Mean±SEM
Protocol: The mice were divided into six groups (n=5-10):
(§1) Mice then also received either NOX-100 at a dose of 30 mg/kg/hr or vehicle (Veh) over the 48 hour time period. A controlled, continuous drug delivery rate was established through the use of osmotic pumps inserted intraperitoneally by laparotomy. Laparotomy with pump insertion was performed at the time of trauma (0 hours). Please note that the laparotomy procedure itself is considered a significant trauma. Mice in the ‘Unmanipulated controls’ group received no experimental manipulation.
Mice were euthanized at a 48 hour time point. Measurements at this late time point included assessment of splenocyte responses. Splenocyte proliferation, a well established parameter of immune dysfunction was assessed. […] Splenocyte proliferation was assessed using tritiated thymidine (^3H-dT) uptake as counts per minute (c.p.m.).

[3] = test system: splenocytes; assay: Splenocyte interferon-gamma release (ELISA) 48 hours after pseudofracture + laparotomy, NOX-100 by osmotic pump; assay type: in vivo, C57BL/6 mice
Protocol: as §1
Additional measurements of splenocyte responses at the late 48 hr time point included assessment of splenocyte interferon-gamma release, an established parameter of immune dysfunction. […] Splenocyte culture supernatants were collected and assessed by ELISA.

Compound | Interferon-gamma release by splenocytes after antiCD3e stimulation following trauma ([1]; antiCD3e 1 μg/ml (FIG. 6)) | Concanavalin A stimulated splenocyte cytokine release (IFNγ) following trauma ([1]; concanavalin A 2.5 μg/ml (FIG. 4)) | Splenocyte proliferation, tritiated thymidine uptake after antiCD3e stimulation ([2]; antiCD3e 1 μg/ml, p<0.05 vs vehicle (FIG. 9B)) | Splenocyte proliferation, tritiated thymidine uptake after concanavalin A stimulation ([2]; concanavalin A 2.5 μg/ml, p=0.062 vs vehicle (FIG. 9A)) | Post-injury decrease in splenocyte release of interferon gamma, effect of administration ([3]; 48 hrs post injury, NOX-100 30 mg/kg/hr (FIGS. 10A-B)) | Splenocyte interferon-gamma release after antiCD3e stimulation ([3]; PF+laparotomy, NOX-100 30 mg/kg/hr over 48 hours by intraperitoneal osmotic pump, antiCD3e 1 μg/ml, Mean±SEM, p<0.05 vs vehicle (FIG. 10B))
CC(=N)NCc1cccc(CN)c1 [1400 W, N-(3-(Aminomethyl)benzyl)acetamidine] | no depression in cytokine release | not significantly reduced | – | – | – | –
CN(C[C@H](O)[C@@H](O)[C@H](O)[C@H](O)CO)C(=S)[S][Na] [NOX-100] | – | – | 45208.9±4890.5 c.p.m. | 33658.6±3787.9 c.p.m. | reversed | 604.70 ± 86.96 pg/mL
